One test deals with T1, human MC2R (Homo sapiens, UniProt Q01718).
T1 construct: host or cells: GeneBLAzer MC2R-CRE-bla CHO-K1 cells
The experiment in a line: Measurement of human MC2R inhibitory activity using intracellular cAMP concentration as an indicator. The format is cell-based. The note with it: test compound at 1 µM; GeneBLAzer MC2R-CRE-bla CHO-K1 cells; ACTH (Human 1-24) final concentration 3 pM; intracellular cAMP by HTRF; read-out: MC2R inhibition rate (% of inhibition). A digest of the protocol:
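MC2R-CRE-bla CHO-K1 cells at 1,500/well in HBSS with 10 mM HEPES pH 7.5, 0.01% BSA and 500 µM IBMX, preincubated 20 min with compound, then stimulated with 3 pM ACTH(1-24) for 30 min at room temperature. cAMP read by HTRF; % inhibition from the ACTH-stimulated and unstimulated windows.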
(In general: In TR-FRET formats the signal depends on donor and acceptor labels being close together.)

For test [1], the system named is ACTH-induced corticosterone secretion. The experiment in a line: Suppressive action of ACTH-induced corticosterone secretion in mice. The format is in vivo. As to conditions: 10 mg/kg, p.o.; male ICR mice; ACTH (1-24) 100 µg/kg subcutaneously 1 hr later; AUC up to 2 hr after ACTH administration. As for the experimental part:
Experimental Example 2: Suppressive action of ACTH-induced corticosterone secretion in mice
Nine-week-old male ICR mice (CHARLES RIVER LABORATORIES JAPAN, INC.) were used in the test.
The mice were assigned to each group based on body weight, with 5 mice per group. Test compounds were suspended in 0.5% (w/v) methylcellulose solution. ACTH (1-24) (A0948, LKT Laboratories, Inc.) was dissolved in saline. The test compound (10 mg/kg) or vehicle was orally administered to mice, and 1 hr later, ACTH solution (100 µg/kg) was administered subcutaneously. Blood was collected from the tail vein before ACTH administration and 0.5, 1, and 2 hr after administration, and corticosterone concentration in plasma was measured using an ELISA kit (EC3001-1, Assaypro). Using the plasma corticosterone concentration at each time point, the area under the blood concentration-time curve up to 2 hr after administration (AUC0-2h) was calculated.

T1 sequence (Q01718 whole entry): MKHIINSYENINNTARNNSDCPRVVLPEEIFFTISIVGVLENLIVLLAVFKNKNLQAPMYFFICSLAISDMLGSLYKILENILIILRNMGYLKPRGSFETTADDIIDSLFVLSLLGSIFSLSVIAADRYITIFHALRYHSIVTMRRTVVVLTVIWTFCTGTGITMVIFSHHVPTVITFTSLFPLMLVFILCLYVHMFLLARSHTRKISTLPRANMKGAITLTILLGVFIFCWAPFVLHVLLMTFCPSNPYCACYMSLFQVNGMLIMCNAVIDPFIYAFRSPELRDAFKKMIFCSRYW
T1 sequence (Q8TCY5 whole entry partner): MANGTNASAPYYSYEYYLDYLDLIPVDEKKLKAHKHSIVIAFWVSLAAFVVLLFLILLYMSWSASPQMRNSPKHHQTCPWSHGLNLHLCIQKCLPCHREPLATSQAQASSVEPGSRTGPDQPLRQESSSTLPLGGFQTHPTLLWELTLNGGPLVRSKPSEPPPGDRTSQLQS

As usually defined, the inhibition is how much of the control response was suppressed. Regarding `CCOc1ncccc1-c1ccc(N2C[C@H]3CN(c4ccc(Cl)cc4C(F)(F)F)C(=O)N3C[C@H]2CC)c(C(=O)NCC2(O)COC2)n1` [Example 30, 3-[(6R,8aS)-2-[4-chloro-2-(trifluoromethyl)phenyl]-6-ethyl-3-oxo-5,6,8,8a-tetrahydro-1H-imidazo[1,5-a]pyrazin-7-yl]-6-(2-ethoxypyridin-3-yl)-N-[(3-hydroxyoxetan-3-yl)methyl]pyridine-2-carboxamide], at human MC2R, the inhibition at 1 µM was determined as 100%. In addition, the “plasma corticosterone AUC0-2h (% of vehicle, mean±S.D.)” value in test [1] is recorded as 8.6 ± 2.4 % of vehicle.
For `CCOc1ncccc1-c1ccc(N2C[C@H]3CN(c4ccc(Cl)cc4C(F)(F)F)C(=O)N3C[C@H]2CC)c(C(=O)N[C@@H]2CCNC2)n1` [Example 31, 3-[(6R,8aS)-2-[4-chloro-2-(trifluoromethyl)phenyl]-6-ethyl-3-oxo-5,6,8,8a-tetrahydro-1H-imidazo[1,5-a]pyrazin-7-yl]-6-(2-ethoxypyridin-3-yl)-N-[(3R)-pyrrolidin-3-yl]pyridine-2-carboxamide], the inhibition at 1 µM on human MC2R is 100%. Moreover, the “plasma corticosterone AUC0-2h (% of vehicle, mean±S.D.)” value in test [1] is 61.1 ± 7.3 % of vehicle.
On to `CCOc1ncccc1-c1ccc(N2C[C@H]3CN(c4ccc(Cl)cc4C(F)(F)F)C(=O)N3C[C@H]2CC)c(C(=O)NC[C@H](C)O)n1` [Example 34, 3-[(6R,8aS)-2-[4-chloro-2-(trifluoromethyl)phenyl]-6-ethyl-3-oxo-5,6,8,8a-tetrahydro-1H-imidazo[1,5-a]pyrazin-7-yl]-6-(2-ethoxypyridin-3-yl)-N-[(2S)-2-hydroxypropyl]pyridine-2-carboxamide], for which, at human MC2R, the inhibition at 1 µM was 96%. The “plasma corticosterone AUC0-2h (% of vehicle, mean±S.D.)” value in test [1] is on record as 15.6 ± 4.9 % of vehicle.
Turning to `CCOc1ncccc1-c1ccc(N2C[C@H]3CN(c4ccc(Cl)cc4C(F)(F)F)C(=O)N3C[C@H]2CC)c(C(=O)NCC(=O)NC)n1` [Example 37, 3-[(6R,8aS)-2-[4-chloro-2-(trifluoromethyl)phenyl]-6-ethyl-3-oxo-5,6,8,8a-tetrahydro-1H-imidazo[1,5-a]pyrazin-7-yl]-6-(2-ethoxypyridin-3-yl)-N-[2-(methylamino)-2-oxoethyl]pyridine-2-carboxamide], the inhibition at 1 µM on human MC2R came to 100%. In addition, in test [1], the “plasma corticosterone AUC0-2h (% of vehicle, mean±S.D.)” value is given as 14.0 ± 1.8 % of vehicle.
Consider `CCOc1ncccc1-c1ccc(N2C[C@H]3CN(c4ccc(Cl)cc4C(F)(F)F)C(=O)N3C[C@H]2CC)c(C(=O)N[C@H]2CNC(=O)C2)n1` [Example 38, 3-[(6R,8aS)-2-[4-chloro-2-(trifluoromethyl)phenyl]-6-ethyl-3-oxo-5,6,8,8a-tetrahydro-1H-imidazo[1,5-a]pyrazin-7-yl]-6-(2-ethoxypyridin-3-yl)-N-[(3R)-5-oxopyrrolidin-3-yl]pyridine-2-carboxamide], for which the inhibition at 1 µM at human MC2R worked out at 100%. In test [1], the “plasma corticosterone AUC0-2h (% of vehicle, mean±S.D.)” value is given as 14.2 ± 4.3 % of vehicle.
On to `CCOc1ncccc1-c1ccc(N2C[C@H]3CN(c4ccc(Cl)cc4C(F)(F)F)C(=O)N3C[C@H]2CC)c(C(=O)N[C@@H]2CCNC2=O)n1` [Example 47, 3-[(6R,8aS)-2-[4-chloro-2-(trifluoromethyl)phenyl]-6-ethyl-3-oxo-5,6,8,8a-tetrahydro-1H-imidazo[1,5-a]pyrazin-7-yl]-6-(2-ethoxypyridin-3-yl)-N-[(3R)-2-oxopyrrolidin-3-yl]pyridine-2-carboxamide], for which the inhibition at 1 µM at human MC2R is 100%. Further, the “plasma corticosterone AUC0-2h (% of vehicle, mean±S.D.)” value in test [1] is on record as 17.5 ± 4.4 % of vehicle.
The like results for `CCOc1ncccc1-c1ccc(N2C[C@H]3CN(c4ccc(Cl)cc4C(F)(F)F)C(=O)N3C[C@H]2CC)c(C(=O)N[C@@H]2CC(=O)N(C)C2)n1` [Example 49, 3-[(6R,8aS)-2-[4-chloro-2-(trifluoromethyl)phenyl]-6-ethyl-3-oxo-5,6,8,8a-tetrahydro-1H-imidazo[1,5-a]pyrazin-7-yl]-6-(2-ethoxypyridin-3-yl)-N-[(3R)-1-methyl-5-oxopyrrolidin-3-yl]pyridine-2-carboxamide] were, in that order, 100% and 7.7 ± 2.5 % of vehicle.
On to `CCOc1ccccc1-c1ccc(N2C[C@H]3CN(C4(C(F)(F)F)CC4)C(=O)N3C[C@H]2CC)c(C(=O)N[C@@H]2CC(=O)N(C)C2)n1` [Example 62, 3-[(6R,8aS)-6-ethyl-3-oxo-2-[1-(trifluoromethyl)cyclopropyl]-5,6,8,8a-tetrahydro-1H-imidazo[1,5-a]pyrazin-7-yl]-6-(2-ethoxyphenyl)-N-[(3R)-1-methyl-5-oxopyrrolidin-3-yl]pyridine-2-carboxamide], for which the inhibition at 1 µM on human MC2R amounted to 98%.
On the same count and under the same terms, as for `CCOc1ccccc1-c1ccc(N2C[C@H]3CN(c4ccc(Cl)cc4C(F)(F)F)C(=O)N3C[C@H]2C)c(C(=O)N[C@@H]2CC(=O)N(C)C2)n1` [Example 63, 3-[(6R,8aS)-2-[4-chloro-2-(trifluoromethyl)phenyl]-6-methyl-3-oxo-5,6,8,8a-tetrahydro-1H-imidazo[1,5-a]pyrazin-7-yl]-6-(2-ethoxyphenyl)-N-[(3R)-1-methyl-5-oxopyrrolidin-3-yl]pyridine-2-carboxamide], the figure is 100%.
Consider `COc1ccccc1-c1ccc(N2C[C@H]3CN(c4ccc(Cl)cc4C(F)(F)F)C(=O)N3C[C@H]2C)c(C(=O)N[C@@H]2CC(=O)N(C)C2)n1` [Example 64, 3-[(6R,8aS)-2-[4-chloro-2-(trifluoromethyl)phenyl]-6-methyl-3-oxo-5,6,8,8a-tetrahydro-1H-imidazo[1,5-a]pyrazin-7-yl]-6-(2-methoxyphenyl)-N-[(3R)-1-methyl-5-oxopyrrolidin-3-yl]pyridine-2-carboxamide], for which the inhibition at 1 µM at human MC2R came to 95%.
Same read-out and setting: as for `CCOc1ncccc1-c1ccc(N2C[C@H]3CN(C4(C(F)(F)F)CCC4)C(=O)N3C[C@H]2CC)c(C(=O)N[C@@H]2CC(=O)N(C)C2)n1` [Example 65, 3-[(6R,8aS)-6-ethyl-3-oxo-2-[1-(trifluoromethyl)cyclobutyl]-5,6,8,8a-tetrahydro-1H-imidazo[1,5-a]pyrazin-7-yl]-6-(2-ethoxy-3-pyridinyl)-N-[(3R)-1-methyl-5-oxopyrrolidin-3-yl]pyridine-2-carboxamide], the figure is 89%; as for `CCOc1ccccc1-c1ccc(N2C[C@H]3CN(C4(C(F)(F)F)CCC4)C(=O)N3C[C@H]2CC)c(C(=O)N[C@@H]2CC(=O)N(C)C2)n1` [Example 66, 3-[(6R,8aS)-6-ethyl-3-oxo-2-[1-(trifluoromethyl)cyclobutyl]-5,6,8,8a-tetrahydro-1H-imidazo[1,5-a]pyrazin-7-yl]-6-(2-ethoxyphenyl)-N-[(3R)-1-methyl-5-oxopyrrolidin-3-yl]pyridine-2-carboxamide], 97%.
As for `CCOc1ccccc1-c1ccc(N2C[C@H]3CN(c4ccc(Cl)cc4C(F)(F)F)C(=O)N3C[C@H]2CC)c(C(=O)N[C@@H]2CC(=O)N(C)C2)n1` [Example 67, 3-[(6R,8aS)-2-[4-chloro-2-(trifluoromethyl)phenyl]-6-ethyl-3-oxo-5,6,8,8a-tetrahydro-1H-imidazo[1,5-a]pyrazin-7-yl]-6-(2-ethoxyphenyl)-N-[(3R)-1-methyl-5-oxopyrrolidin-3-yl]pyridine-2-carboxamide], the inhibition at 1 µM on human MC2R was 94%.
For `CC[C@@H]1CN2C(=O)N(c3ccc(Cl)cc3C(F)(F)F)C[C@@H]2CN1c1ccc(-c2ccccc2OC)nc1C(=O)N[C@@H]1CC(=O)N(C)C1` [Example 68, 3-[(6R,8aS)-2-[4-chloro-2-(trifluoromethyl)phenyl]-6-ethyl-3-oxo-5,6,8,8a-tetrahydro-1H-imidazo[1,5-a]pyrazin-7-yl]-6-(2-methoxyphenyl)-N-[(3R)-1-methyl-5-oxopyrrolidin-3-yl]pyridine-2-carboxamide], on human MC2R, the inhibition at 1 µM worked out at 96%.
On to `CC[C@@H]1CN2C(=O)N(c3ccc(Cl)cc3C(F)(F)F)C[C@@H]2CN1c1ccc(-c2cccnc2OC)nc1C(=O)N[C@@H]1CC(=O)N(C)C1` [Example 69, 3-[(6R,8aS)-2-[4-chloro-2-(trifluoromethyl)phenyl]-6-ethyl-3-oxo-5,6,8,8a-tetrahydro-1H-imidazo[1,5-a]pyrazin-7-yl]-6-(2-methoxy-3-pyridinyl)-N-[(3R)-1-methyl-5-oxopyrrolidin-3-yl]pyridine-2-carboxamide], for which the inhibition at 1 µM on human MC2R came to 92%.

The values above are taken from patent EP4714953A1, “MELANOCORTIN 2-TYPE RECEPTOR ANTAGONIST” (Scohia Pharma, Inc., priority 2023, dated 2024).
